Laboratory results taken from patent US20240344241A1, “PROTEINACEOUS MOLECULES AND USES THEREFOR” (THE UNIVERSITY OF QUEENSLAND, priority 2021, published 2024).
Bridge positions count the residues as written; N and C are the ends. Peptide text beside a SMILES is read from it.

Assays:
[1] = molecular target: T1, biotinylated human β-FXIIa (Homo sapiens, UniProt P00748); test: Surface plasmon resonance binding to FXIIa
T1 construct: purchased Molecular Innovations
Outline: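 Biacore T200 SPR with biotinylated β-FXIIa captured on a CAP chip, running buffer HBS-EP+ pH 7.4. Peptides injected as a concentration series, surface regenerated after each cycle; kinetics modelled with a 1:1 binding model.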

bovine trypsin = molecular target: T2, bovine trypsin (Bos taurus, UniProt P00760); test: Surface plasmon resonance binding to trypsin
T2 sequence (P00760 24-246): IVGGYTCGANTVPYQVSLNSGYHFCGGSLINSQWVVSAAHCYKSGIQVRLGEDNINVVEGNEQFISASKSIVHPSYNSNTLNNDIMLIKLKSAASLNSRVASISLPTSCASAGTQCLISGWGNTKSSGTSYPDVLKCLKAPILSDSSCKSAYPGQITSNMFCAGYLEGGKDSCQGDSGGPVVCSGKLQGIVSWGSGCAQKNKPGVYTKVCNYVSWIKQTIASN

Human FXa = molecular target: T3, Human FXa (Homo sapiens, UniProt P00742); test: FXa inhibition assay; type: biochemical
T3 construct: Human β-FXIIa was obtained from Molecular Innovations, together with human FXa, human FXIa, human α-thrombin, and human plasma kallikrein; purchased Molecular Innovations; host or cells: purified from human plasma
Description: (§1) The activity of acyclic and cyclic MCoFx1-5 and analogues thereof was assessed in competitive inhibition assays, as previously described in Swedberg et al. (2016) J Med Chem, 59: 7287-7292. Human β-FXIIa was obtained from Molecular Innovations, together with human FXa, human FXIa, human α-thrombin, and human plasma kallikrein. Human cationic trypsin and human plasmin were obtained from Sigma-Aldrich, and recombinant human matriptase was sourced from R&D Systems. Recombinant human urokinase (uPA) and recombinant human tissue plasminogen activator (tPA) were expressed in Expi293 cells, as previously described in Li et al. (2019) Chembiochem, 20: 46-50. FXIIa inhibition assays were performed in clear, low-binding 96-well plates using 250 μL (final volume) of assay buffer (0.1 M Tris-HCl pH 8.0, 0.1 M NaCl, 10 mM CaCl2 and 0.005% Triton X-100). Inhibitors were serially diluted and incubated with 10 nM FXIIa at room temperature to reach equilibrium. After adding 100 μM Ac-QRFR-pNA substrate (KM=162 μM), enzymatic activity was measured by monitoring release of the pNA moiety using a TECAN infinite M1000 Pro plate reader (A=405 nm, reading interval, 10 s; assay time course, 7 min). Assays were conducted in three times in duplicate. Substrate kinetic constants (Michaelis-Menten) and inhibition constants (Morrison K) were determined by non-linear regression using Prism 7 (GraphPad). Selectivity assays with off-target proteases were performed in a similar way, except that different concentrations of enzyme and substrate were used, as indicated in Table 16. For assays using a fluorescent substrate (peptide-4-methylcoumaryl-7-amide, MCA), black low-binding 96-well plates were used and activity was measured using a TECAN infinite M1000 pro plate reader (λex 360 nm, λem 460 nm, reading interval, 30 s; assay time course, 5-30 min).

Human FXIa = molecular target: T4, Human FXIa (Homo sapiens, UniProt P03951); test: FXIa inhibition assay; type: biochemical
T4 construct: Human β-FXIIa was obtained from Molecular Innovations, together with human FXa, human FXIa, human α-thrombin, and human plasma kallikrein; purchased Molecular Innovations; host or cells: purified from human plasma
Description: as §1

Human thrombin = molecular target: T5, Human thrombin (Homo sapiens, UniProt P00734); test: Thrombin inhibition assay; type: biochemical
T5 construct: Human β-FXIIa was obtained from Molecular Innovations, together with human FXa, human FXIa, human α-thrombin, and human plasma kallikrein; purchased Molecular Innovations; host or cells: purified from human plasma
Description: as §1

Human plasma kallikrein = molecular target: T6, Human plasma kallikrein (Homo sapiens, UniProt P03952); test: Plasma kallikrein inhibition assay; type: biochemical
T6 construct: Human β-FXIIa was obtained from Molecular Innovations, together with human FXa, human FXIa, human α-thrombin, and human plasma kallikrein; purchased Molecular Innovations; host or cells: purified from human plasma
Description: as §1

Human plasmin = molecular target: T7, Human plasmin (Homo sapiens, UniProt P00747); test: Plasmin inhibition assay; type: biochemical
T7 construct: Human cationic trypsin and human plasmin were obtained from Sigma-Aldrich, and recombinant human matriptase was sourced from R&D Systems; purchased Sigma-Aldrich; host or cells: purified from human plasma
Description: as §1

Rec. human uPA = molecular target: T8, Rec. human uPA (Homo sapiens, UniProt P00749); test: uPA inhibition assay; type: biochemical
T8 construct: made in house; host or cells: Expi293 cells
Description: as §1

Rec. human tPA = molecular target: T9, Rec. human tPA (Homo sapiens, UniProt P00750); test: tPA inhibition assay; type: biochemical
T9 construct: made in house; host or cells: Expi293 cells
Description: as §1

Rec. human matriptase = molecular target: T10, Rec. human matriptase (Homo sapiens, UniProt Q9Y5Y6); test: Matriptase inhibition assay; type: biochemical; details: Table 10; read-out: Ki Matriptase
T10 construct: purchased R&D Systems
T10 sequence (Q9Y5Y6 615-855 limits assumed): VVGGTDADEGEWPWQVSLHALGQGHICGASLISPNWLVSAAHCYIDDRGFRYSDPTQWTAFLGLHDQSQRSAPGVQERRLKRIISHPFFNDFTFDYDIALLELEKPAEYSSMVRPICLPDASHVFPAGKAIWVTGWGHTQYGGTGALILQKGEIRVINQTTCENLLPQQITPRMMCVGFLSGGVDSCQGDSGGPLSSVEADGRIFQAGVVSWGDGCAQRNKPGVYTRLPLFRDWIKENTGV
Outline: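 Serially diluted inhibitors equilibrated at room temperature with 10 nM β-FXIIa in 0.1 M Tris-HCl pH 8.0, 0.1 M NaCl, 10 mM CaCl2, 0.005% Triton X-100; 100 μM Ac-QRFR-pNA (KM=162 μM), A405 over 7 min. Off-target proteases used differing enzyme/substrate levels, some with fluorogenic MCA substrates (ex 360/em 460 nm, 5-30 min). Morrison Ki by non-linear regression.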

[2] = system: human umbilical vein endothelial cells (HUVECs)
Description: HUVECs were cultured in complete EGM™-2 medium until 80% confluence under 5% CO2 at 37° C. before being seeded onto a 96-well microplate at 5,000 cells/well. Cells were grown for 24 h prior to the assay. […] Peptides were diluted tenfold with serum-free EGM™-2 medium and incubated with HUVECs in triplicate. After 24 h incubation, peptide solutions were replaced with fresh complete EGM™-2 medium before the addition of 0.05% resazurin solution (Sigma-Aldrich). Cells were incubated for another 8 h and the absorbance of the plate was measured on a microplate reader at 540 and 620 nm. H2O and 1% Triton-X were used as control for 100 and 0% viability, separately.

T3 sequence (P00742 235-488 limits assumed): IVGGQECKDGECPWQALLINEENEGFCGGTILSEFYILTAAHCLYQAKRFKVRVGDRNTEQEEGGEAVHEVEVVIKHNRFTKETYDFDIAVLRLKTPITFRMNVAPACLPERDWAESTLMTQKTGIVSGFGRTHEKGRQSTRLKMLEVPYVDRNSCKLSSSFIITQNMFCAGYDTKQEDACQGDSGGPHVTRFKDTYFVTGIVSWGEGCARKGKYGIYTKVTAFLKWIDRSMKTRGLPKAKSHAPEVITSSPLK
T3 sequence (P00742 41-179 partner limits assumed): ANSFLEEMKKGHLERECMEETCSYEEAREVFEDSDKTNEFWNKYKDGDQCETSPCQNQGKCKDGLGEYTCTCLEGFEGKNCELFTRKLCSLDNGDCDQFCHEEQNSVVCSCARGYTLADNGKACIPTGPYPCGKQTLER
T6 sequence (P03952 391-638 limits assumed): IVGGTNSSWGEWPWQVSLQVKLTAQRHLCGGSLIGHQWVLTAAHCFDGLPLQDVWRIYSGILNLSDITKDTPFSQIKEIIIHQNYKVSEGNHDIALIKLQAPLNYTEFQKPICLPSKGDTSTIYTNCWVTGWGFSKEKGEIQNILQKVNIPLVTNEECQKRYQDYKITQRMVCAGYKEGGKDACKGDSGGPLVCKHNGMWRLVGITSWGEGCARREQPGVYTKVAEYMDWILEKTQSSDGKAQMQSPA
T6 sequence (P03952 20-390 partner limits assumed): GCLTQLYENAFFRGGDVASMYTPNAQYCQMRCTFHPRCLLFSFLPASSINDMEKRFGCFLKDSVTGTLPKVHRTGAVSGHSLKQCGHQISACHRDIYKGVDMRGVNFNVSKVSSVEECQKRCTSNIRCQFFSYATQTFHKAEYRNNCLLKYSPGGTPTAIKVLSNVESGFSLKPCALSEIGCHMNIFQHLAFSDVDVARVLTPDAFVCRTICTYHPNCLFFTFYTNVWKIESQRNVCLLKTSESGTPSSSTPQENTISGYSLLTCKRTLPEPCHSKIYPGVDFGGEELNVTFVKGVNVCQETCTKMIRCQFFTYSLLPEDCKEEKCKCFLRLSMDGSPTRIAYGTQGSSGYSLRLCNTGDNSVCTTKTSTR
T4 sequence (P03951 388-625 limits assumed): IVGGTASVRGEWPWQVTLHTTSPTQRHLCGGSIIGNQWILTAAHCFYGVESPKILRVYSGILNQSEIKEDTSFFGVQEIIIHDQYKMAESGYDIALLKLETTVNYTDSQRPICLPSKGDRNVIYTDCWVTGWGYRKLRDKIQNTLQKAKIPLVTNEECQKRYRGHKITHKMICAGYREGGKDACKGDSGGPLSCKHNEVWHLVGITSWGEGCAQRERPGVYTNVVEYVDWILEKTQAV
T4 sequence (P03951 19-387 partner limits assumed): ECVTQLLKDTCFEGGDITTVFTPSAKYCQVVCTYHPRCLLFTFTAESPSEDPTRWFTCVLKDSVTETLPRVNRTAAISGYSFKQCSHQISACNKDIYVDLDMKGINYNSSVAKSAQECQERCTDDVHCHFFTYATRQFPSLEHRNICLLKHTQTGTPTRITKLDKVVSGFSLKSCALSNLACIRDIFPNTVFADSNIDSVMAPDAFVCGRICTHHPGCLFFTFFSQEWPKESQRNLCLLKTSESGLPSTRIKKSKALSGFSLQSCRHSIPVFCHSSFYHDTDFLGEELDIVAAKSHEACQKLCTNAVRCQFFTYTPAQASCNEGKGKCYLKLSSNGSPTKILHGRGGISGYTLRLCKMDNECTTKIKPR
T7 sequence (P00747 581-810 limits assumed): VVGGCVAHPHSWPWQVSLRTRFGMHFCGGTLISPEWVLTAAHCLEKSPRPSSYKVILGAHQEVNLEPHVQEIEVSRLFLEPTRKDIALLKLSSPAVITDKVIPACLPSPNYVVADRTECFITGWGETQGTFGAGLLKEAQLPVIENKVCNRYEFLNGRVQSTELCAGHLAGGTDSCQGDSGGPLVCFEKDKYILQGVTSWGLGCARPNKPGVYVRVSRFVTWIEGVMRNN
T7 sequence (P00747 97-580 partner limits assumed): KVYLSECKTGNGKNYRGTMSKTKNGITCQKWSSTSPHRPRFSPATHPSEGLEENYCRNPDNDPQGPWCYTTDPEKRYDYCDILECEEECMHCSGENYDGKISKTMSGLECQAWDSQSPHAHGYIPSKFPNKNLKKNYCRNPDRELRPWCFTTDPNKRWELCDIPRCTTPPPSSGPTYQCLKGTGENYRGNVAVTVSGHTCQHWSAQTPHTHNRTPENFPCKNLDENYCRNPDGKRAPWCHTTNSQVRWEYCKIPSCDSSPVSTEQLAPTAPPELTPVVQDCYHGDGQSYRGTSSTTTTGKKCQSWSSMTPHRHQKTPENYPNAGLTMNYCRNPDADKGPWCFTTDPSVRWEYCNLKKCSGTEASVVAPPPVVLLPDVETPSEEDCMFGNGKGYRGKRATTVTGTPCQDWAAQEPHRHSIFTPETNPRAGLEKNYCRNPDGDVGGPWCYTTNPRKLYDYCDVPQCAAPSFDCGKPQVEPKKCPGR
T9 sequence (P00750 36-562): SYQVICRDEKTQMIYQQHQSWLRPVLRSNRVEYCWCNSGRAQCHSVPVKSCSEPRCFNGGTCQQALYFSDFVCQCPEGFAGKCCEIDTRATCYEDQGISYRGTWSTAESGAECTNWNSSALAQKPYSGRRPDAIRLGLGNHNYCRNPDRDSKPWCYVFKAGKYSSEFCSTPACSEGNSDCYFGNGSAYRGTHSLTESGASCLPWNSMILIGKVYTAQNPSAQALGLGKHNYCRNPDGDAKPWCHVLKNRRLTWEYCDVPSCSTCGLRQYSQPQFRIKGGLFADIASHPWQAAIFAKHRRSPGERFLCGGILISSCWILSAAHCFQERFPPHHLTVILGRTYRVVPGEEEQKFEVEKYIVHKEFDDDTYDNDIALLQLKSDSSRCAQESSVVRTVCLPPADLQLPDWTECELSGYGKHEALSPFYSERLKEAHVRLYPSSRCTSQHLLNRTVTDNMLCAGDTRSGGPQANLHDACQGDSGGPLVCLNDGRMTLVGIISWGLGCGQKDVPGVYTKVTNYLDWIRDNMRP
T1 sequence (P00748 373-615 limits assumed, other chains not shown): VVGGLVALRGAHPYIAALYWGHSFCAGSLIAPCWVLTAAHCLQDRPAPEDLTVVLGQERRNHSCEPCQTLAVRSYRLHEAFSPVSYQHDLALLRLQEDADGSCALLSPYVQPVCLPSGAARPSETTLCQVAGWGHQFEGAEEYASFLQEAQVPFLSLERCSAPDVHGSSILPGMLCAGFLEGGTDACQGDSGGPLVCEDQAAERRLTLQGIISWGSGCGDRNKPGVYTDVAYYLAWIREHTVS

## CC[C@H](C)[C@@H]1NC(=O)CNC(=O)CNC(=O)[C@H](CC(=O)O)NC(=O)[C@H](Cc2ccc(O)cc2)NC(=O)CNC(=O)[C@H](CO)NC(=O)CNC(=O)[C@@H]2CSSC[C@@H]3NC(=O)[C@H](CC(=O)O)NC(=O)[C@H](CO)NC(=O)[C@H](CC(=O)O)NC(=O)[C@H](CCCNC(=N)N)NC(=O)[C@H](CCCNC(=N)N)NC(=O)[C@@H]4CSSC[C@H](NC(=O)[C@H]([C@@H](C)CC)NC(=O)[C@H](CSSC[C@H](NC1=O)C(=O)N1CCC[C@H]1C(=O)N[C@@H](CCCNC(=N)N)C(=O)N[C@@H]([C@@H](C)CC)C(=O)NCC(=O)N[C@@H](CCCNC(=N)N)C(=O)N[C@@H](CC(C)C)C(=O)N4)NC(=O)[C@H](C)NC(=O)CNC(=O)[C@@H]1CCCN1C3=O)C(=O)N[C@@H](CCCNC(=N)N)C(=O)N[C@@H](C)C(=O)N[C@@H]([C@@H](C)O)C(=O)N[C@@H](CCCNC(=N)N)C(=O)N[C@@H](Cc1ccccc1)C(=O)N2 [MCoFx1 cyclic] (cyclo(ACICRATRFCGSGYDGGICPRIGRLCRRDSDCPG); disulfide 2-19, 4-26, 10-32)
[1]; Table 7, FXIIa, cyclic form of the peptide, read-out: KD (nM) Cyclic
  Kd: 0.9 ± 0.04 nM
[1]; ratio of KD values
  fold higher affinity for FXIIa than MCoTI-II: 60 fold
Bovine trypsin; Table 8, cyclic form, read-out: KD (nM) Trypsin Cyclic
  Kd: 31.5 nM
Bovine trypsin; ratio of KD values
  fold lower affinity for trypsin compared with MCoTI-II: 300 fold
Human FXa; at 5 μM, read-out: percent inhibition FXa
  inhibition at 5 µM: 0%
Human FXa; read-out: IC50 FXa
  IC50: > 5 µM
Human FXIa; at 5 μM, read-out: percent inhibition FXIa
  inhibition at 5 µM: 0%
Human FXIa; read-out: IC50 FXIa
  IC50: > 5 µM
Human thrombin; at 5 μM, read-out: percent inhibition Thrombin
  inhibition at 5 µM: 2%
Human thrombin; read-out: IC50 Thrombin
  IC50: > 5 µM
Human plasma kallikrein; at 5 μM, read-out: percent inhibition Plasma kallikrein
  inhibition at 5 µM: 0%
Human plasma kallikrein; read-out: IC50 Plasma kallikrein
  IC50: > 5 µM
Human plasmin; at 5 μM, read-out: percent inhibition Plasmin
  inhibition at 5 µM: 13%
Human plasmin; read-out: IC50 Plasmin
  IC50: > 5 µM
Rec. human uPA; at 5 μM, read-out: percent inhibition uPA
  inhibition at 5 µM: 0%
Rec. human uPA; read-out: IC50 uPA
  IC50: > 5 µM
Rec. human tPA; at 5 μM, read-out: percent inhibition tPA
  inhibition at 5 µM: 0%
Rec. human tPA; read-out: IC50 tPA
  IC50: > 5 µM
Rec. human matriptase
  Ki: 9.12 µM
[2]
  cytotoxicity to HUVECs: not toxic
